The source of these data is US20250369050A1, “METHODS AND COMPOSITIONS RELATED TO ASSESSMENT AND TREATMENT OF KIDNEY DISEASE” (Board of Regents, The University of Texas System, priority 2022, published 2025).

The test system of series [1] is mice challenged with adenine. The series is described as follows: In vivo IRsiRNA #1 with adenine challenge in drinking water in mice (FIG. 35). More on the design: species or system mouse. The method, then:
FIG. 35. In vivo administration of IRsiRNA #1 reduced IR specifically in mouse kidney and prevented adenine-induced rise in BUN levels in mice. Mice were administered vehicle or kidney targeting IRsiRNA #1 prior to being challenged with adenine (5 mM) in the drinking water for 4 days.
In FIG. 35, in vivo administration of IRsiRNA #1 reduced IR specifically in mouse kidney and prevented adenine-induced rise in Blood Urea Nitrogen (BUN) levels in mice. Mice were administered vehicle or kidney targeting IRsiRNA #1 prior to being challenged with adenine (5 mM) in the drinking water for 4 days.

In series [2] the test system is kidney tubular cells. Put plainly: Adenine stimulation of extracellular matrix molecules in kidney tubular cells. Type of series: cell-based.
Series [3] has as its system kidney cells. Put plainly: Adenine toxicity to kidney cells (FIG. 13). Format: cell-based.
Series [4] has as its system human proximal tubular cells (HK2). Put plainly: ATP generation by Seahorse analysis in HK2 cells exposed to adenine. Format: cell-based.
For series [5], the system named is mTOR pathway. Put plainly: Adenine-induced stimulation of mTOR pathway (P-S6K) in tubular cells (FIG. 28). Type of series: cell-based. As to conditions: adenine challenge. An excerpt: The downstream pathways stimulated by adenine are PI3Kinase, AKT and mTOR (FIG. 28). […] Once mTOR is inhibited the downstream effect of adenine to stimulate matrix accumulation was reduced (FIG. 19).

For series [6], the system named is mice. The series is described as follows: Adenine administration to mice (FIG. 30, 31). Format: in vivo, mouse. The text has this: FIG. 30. Adenine administration to mice increases serum sTNFR1 (A), plasma KIM-1 (B). (n=12 in control group and n=7 in adenine treated group, *p<0.05, **p<0.01, ***p<0.001, […] vs control by t-test or One-way ANOVA).
FIG. 31. Adenine administration to mice increases kidney (A) and heart (B) hypertrophy and mTOR mediated matrix molecules in the kidney (C). Quantitative assessment of phosphor-S6 kinase as a measure of mTOR (D), fibronectin/-b-actin (E) and collagen type 1 alpha 2 chain (F). (n=12 in control group and n=7 in adenine treated group, *p<0.05, **p<0.01, ***p<0.001, […] vs control by t-test or One-way ANOVA).
Patients with type 1 diabetes (n=8) or type 2 diabetes (n=8) have an increase in tissue levels of adenine in their kidney biopsies as compared to healthy controls (n=5)(FIG. 29). Adenine administration is causative of the major manifestations of diabetic kidney disease in a mouse model, including serum soluble tumor necrosis factor receptor-1 (sTNFR1) and plasma kidney injury […] (KIM1) (FIG. 30). Adenine also stimulates kidney hypertrophy and heart hypertrophy (FIG. 31) as well as kidney phosphor-S6-kinase (marker of mTOR activity), kidney fibronectin and kidney collagen type 1 alpha-2 chain (FIG. 31). An inhibitor of MTAP (DADMe-ImmA 10 mg/kg/d in drinking water for 8 weeks) reduces urine ACR, urine hydrogen peroxide (urine H2O2) and urine collagen in a mouse model of diabetic kidney disease (db/db mouse) (FIG. 32).

The test system of series [7] is patients with hyperfiltration. Put plainly: Urine adenine in type 1 diabetic patients with hyperfiltration treated with empagliflozin (FIG. 23). As to conditions: high risk patients with hyperfiltration, after 8 weeks of treatment. Format: in vivo, human. The text has this:
FIG. 23. Empagliflozin reduces urine adenine levels in patients with hyperfiltration. Hyperfilterers (red lines and dots) and normofilterers (blue lines and dots). Overall effect of treatment (Visit 3 and 4 vs. Visit 12 and 13) on least square mean changes to log-transformed adenine levels is reported. Significant p-values stated. *p<0.05, **p<0.01.

Series [8] relates to kidney cells. The series is described as follows: Protection of kidney cells from cell death by MTAP inhibitor (FIG. 18). Format: cell-based. As to conditions: cell stress due to reduction of MDM2.
Series [9] has as its system db/db mice. Put plainly: MTAP inhibitor for 8 weeks in db/db mice (FIG. 32, 33). Format: in vivo, mouse. As to the method:
FIG. 32. […] Control (db/m) and diabetic (db/db) mice were treated from week 12 to week 20 with MTAP inhibitor (10 mg/kg/day in drinking water) and 24 h urine samples were collected and measured for albumin/creatinine ratio (A), hydrogen peroxide/creatinine ratio (B) and collagen/creatinine ratio (C). (*p<0.05, ANOVA, n=5-6/group)
FIG. 33. […] Control (db/m) and diabetic (db/db) mice were treated from week 12 to week 20 with MTAP inhibitor (10 mg/kg/day in drinking water) and kidney weight was standardized per tibia length (A). Kidney cortex was immunoblotted for fibronectin and laminin y1 and standardized for b-actin with quantitative data shown in (B) and (C), respectively. (*p<0.05, ANOVA, n=5-6/group)

The test system of series [10] is mice undergoing ischemia-reperfusion injury. The series is described as follows: Ischemia-reperfusion injury in mice, BUN (FIG. 25). Type of series: in vivo, mouse. As to conditions: inhibitor given once before ischemia 30 min and reperfusion, BUN 24 h later. As to the method:
FIG. 25. MTAP inhibitor DADMe-ImmA given once before ischemia-reperfusion injury prevents an increase in BUN levels in mice undergoing ischemia-reperfusion injury. Mice underwent ischemia for 30m followed by reperfusion and 24 h later, the BUN was measured.

The test system of series [11] is db/db mice. As to the method:
FIG. 26. […] NaHS administered for 4 weeks to db/db mice and db/m mice and MTAP/-b-actin and fibronectin/b-actin levels were evaluated by immunoblotting. Urine ACR was measured at end of 4-week period of NaHS administration.

The subject of series [12] is Kidney tubules (MCT) cells. The series is described as follows: Adenine-induced fibronectin accumulation in MCT cells (FIG. 19). Format: cell-based, mouse. As to the method:
FIG. 19. Effect of Rapamycin and NaHS on Adenine. […] A. Kidney tubules (MCT) cells were pre-incubated with 10 nM of rapamycin for 30 min followed by incubation with 20 μM of adenine for 15 min. B. MCT cells were incubated with 20 μM of adenine and 250 μM NaHS for 15 min.

Series [13] has as its system human insulin receptor mRNA. Put plainly: Insulin receptor mRNA knockdown in HK2 cells by qRTPCR (FIG. 36). Format: cell-based. As to conditions: 96 h after transfection, vs control siRNA. As to the method: FIG. 36. siRNA to Human and Pig Insulin receptor is effective to reduce mRNA for Insulin receptor in human kidney cells. Human kidney (HK2) proximal tubular cells were transfected with siRNA (4 ul from 10 um stock) using RNAiMax (6 ul in optiMEM) and plated on 6 well plates. After 48 h, the media was replaced with fresh media. After 96 h of the transfection, total RNA was isolated and subjected to cDNA synthesis followed by qRTPCR.
In this non-limiting example, siRNA targeting human/pig insulin receptor mRNA can reduce human insulin receptor in human tubular cells. (FIG. 36). In FIG. 36, siRNA to human and pig insulin receptor is effective to reduce mRNA for insulin receptor in human kidney cells. Human kidney (HK2) proximal tubular cells were transfected with siRNA (4 ul from 10 um stock) using RNAiMax (6 ul in optiMEM) and plated on 6 well plates. After 48 h, the media was replaced with fresh media. After 96 h of the transfection, total RNA was isolated and subjected to cDNA synthesis followed by qRTPCR.

Series [14] concerns mouse insulin receptor mRNA. Put plainly: Insulin receptor mRNA knockdown in MCT cells by qRTPCR (FIG. 34). Format: cell-based. As to conditions: reverse transfection, 72 h. As to the method: (§1) FIG. 34. siRNAs to insulin receptor (IR) based on sequence in mouse and rat reduces IR in mouse kidney cells. Mouse cortical tubular (MCT) cells were reverse transfected with siRNAs targeting mouse and rat insulin receptor mRNA (m/r IRsiRNA #1 and m/r IR siRNA #5) using RNAiMax (6 ul in optiMEM) and plated on 6 well plates. After 72 h of incubation, total RNA was isolated and subjected to cDNA synthesis followed by qRTPCR (n=6/group, ****p<0.0001).
as §1, with “34 illustrates the administration of the siRNA for the insulin receptor to mice treated with adenine reduced insulin receptor in the kidney but not in liver and prevented the increase in blood urea nitrogen levels (FIG. 35). In FIG. 34,” for “34.”

The mark [15] stands for this setting: adenine administration vs control.
[16] abbreviates: 10 mg/kg/day in drinking water, week 12 to 20, 24 h urine.
Setting [17] is: 10 mg/kg/day, 8 weeks, kidney cortex immunoblot.

Where two headings read alike, the source gives them in different places.

On to `Nc1ncnc2nc[nH]c12` [Adenine], for which the “elevation in BUN levels vs non-adenine group” value in series [1] (vehicle and adenine 5 mM in drinking water for 4 days) was 3 fold. In addition, in [2], the “Type I collagen” value is on record as “rapidly stimulates Type I collagen” and the fibronectin production entry is reported as “stimulates”. The “toxicity to kidney cells” value in series [3] is given as “toxic to kidney cells”. The ATP generation result in series [4] (dose dependence) is “dose-dependently reduced ATP generation”. In series [4] (high doses of adenine), the ATP generation result is “complete reduction of ATP generation”. For the same compound, in series [5], the “S6K phosphorylation (P-S6K)” value is listed as “increased within minutes of adenine challenge”. Besides, in [6] (adenine administration), the heart hypertrophy entry is “stimulates”, the “kidney collagen type 1 alpha-2 chain” value is on record as “stimulates”, the kidney fibronectin entry is on record as “stimulates” and the kidney hypertrophy entry is recorded as “stimulates”. For the same compound, the “kidney phosphor-S6-kinase (marker of mTOR activity)” value in [6] (adenine administration) was “stimulates”. In [6] (setting [15]), the “plasma KIM-1” value is “increases” and the “serum sTNFR1” value is recorded as “increases”.
Take `OC[C@H]1O[C@@H](c2ccc(Cl)c(Cc3ccc(O[C@H]4CCOC4)cc3)c2)[C@H](O)[C@@H](O)[C@@H]1O` [Empagliflozin]: the urine adenine/creatinine levels result in [7] was “reduces urine adenine/creatinine levels”.
`CSC[C@H]1CN(Cc2c[nH]c3c(N)ncnc23)C[C@@H]1O` [MT-DADMe-ImmA, Methylthio-DADMe-Immucillin]: the “protection of kidney cells from cell death” value in series [8] was “protects kidney cells from cell death”. For the same compound, in series [9] (setting [16]), the “urine ACR” value is listed as “reduces”, the “urine H2O2” value was “reduces” and the urine collagen result is “reduces”. For the same compound, in series [9] (setting [17]), the kidney fibronectin entry is reported as “reduced” and the “kidney laminin yI” value is reported as “reduced”. The kidney hypertrophy entry in series [9] (10 mg/kg/day, 8 weeks, kidney weight per tibia length) is given as “reduced”. Moreover, in series [10], the BUN result is recorded as “no significant increase in BUN”.
Turning to `[Na+].[SH-]` [NaHS, sodium hydrogen sulfide], in series [11] (NaHS 4 weeks, kidney), the MTAP/b-actin by immunoblotting entry was “significant reduction” and the fibronectin/b-actin by immunoblotting entry was “significant reduction”. Besides, the “urine ACR” value in [11] (end of 4-week NaHS administration) was “significant reduction”. For the same compound, the adenine-induced fibronectin production result in series [12] (MCT cells, 20 μM adenine and 250 μM NaHS for 15 min) is on record as “inhibit adenine-induced fibronectin production”. In series [12] (kidney cells, NaHS), the “adenine-induced disease causing pathways (mTOR)” value is “protects against” and the “healing pathways (AMPK)” value was “improving healing pathways (AMPK)”.
In the case of “H/P IR siRNA #4: siRNA targeting human and pig IR mRNA, SEQ ID NO. 21 (+) and SEQ ID NO. 22 (−) (sense GGAAUGACCAGAGACAUCUAUGAAA; antisense UUUCAUAGAUGUCUCUGGUCAUUCCAA; listed as RNA, chemistry not fully specified)”, in series [13], the “human insulin receptor mRNA” value was “significant reduction”.
Turning to “H/P siRNA #2: siRNA targeting human and pig IR mRNA, SEQ ID NO. 17 (+) and SEQ ID NO. 18 (−) (sense CAGUACGUCAUUCACAACAACAAGU; antisense ACUUGUUGUUGUGAAUGACGUACUGGU; listed as RNA, chemistry not fully specified)”, the “human insulin receptor mRNA” value in series [13] was “significant reduction”.
As to “m/r IR siRNA #5: siRNA targeting mouse/rat IR mRNA, SEQ ID NO. 9 (+) and SEQ ID NO. 10 (−) (sense AAAUCAGUUCCUCAAAUUGACCAAU; antisense AUUGGUCAAUUUGAGGAACUGAUUUUG; listed as RNA, chemistry not fully specified)”, the “mouse insulin receptor at mRNA level” value in series [14] was “significant reduction”.
Regarding “m/r IRsiRNA #1: siRNA targeting mouse/rat IR mRNA, SEQ ID NO. 1 (+) and SEQ ID NO. 2 (−) (sense GGCUCUGUCCGCAUCGAGAAGAAUA; antisense UAUUCUUCUCGAUGCGGACAGAGCCCC; listed as RNA, chemistry not fully specified)”, the “IR in mouse kidney cortex” value in series [1] (day 4, immunoblot vs control sample) is listed as “reduction of IR in mouse kidney cortex”. For the same compound, the BUN levels entry in series [1] (siRNA before adenine 5 mM in drinking water for 4 days) is reported as “no increase in BUN levels”. The “mouse insulin receptor at mRNA level” value in series [14] was “significant reduction”.
